Laboratory results: patent publication US7863271B2, “2-aminobenzoxazole carboxamides as 5HT3 modulators” (Albany Molecular Research, Inc., priority 2006, dated 2011)
Structures can show the parent of a compound that is named as a salt.

These compounds were tested against T1, 5-HT3 (Homo sapiens, UniProt P46098) (assay: Compound affinity for the human 5-HT3 receptor (Assay B), SPA radioligand binding with [9-methyl-3H]BRL-43694). Details: Assay B (method B unless otherwise annotated); read-out: 5-HT3 Ki.
T1 sequence (P46098 24-478): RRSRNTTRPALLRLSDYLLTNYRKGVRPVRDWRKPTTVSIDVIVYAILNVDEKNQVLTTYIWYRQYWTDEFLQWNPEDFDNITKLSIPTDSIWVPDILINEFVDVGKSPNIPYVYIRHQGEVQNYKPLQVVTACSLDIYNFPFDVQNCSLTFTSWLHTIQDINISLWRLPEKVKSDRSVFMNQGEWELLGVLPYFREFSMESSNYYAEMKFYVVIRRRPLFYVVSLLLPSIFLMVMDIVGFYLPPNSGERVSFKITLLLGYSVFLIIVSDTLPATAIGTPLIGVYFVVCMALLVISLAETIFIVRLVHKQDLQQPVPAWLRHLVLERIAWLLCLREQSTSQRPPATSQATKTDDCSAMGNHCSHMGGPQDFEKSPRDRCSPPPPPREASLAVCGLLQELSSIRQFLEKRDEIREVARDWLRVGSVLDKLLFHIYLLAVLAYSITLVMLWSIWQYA
Design: purchased Perkin Elmer
Description: Compound Affinity for the human 5-HT3 Receptor (Assay B)
The relative affinity of the various compounds for the human 5-HT3 receptor was measured in a radioligand binding assay, using a scintillation proximity assay (SPA) format. Test compounds were dissolved to 10 mM in 100% DMSO, then serially diluted at 10× assay concentrations in 100% DMSO in 96-well polypropylene plates and further diluted to 4× assay concentrations with the assay buffer. […] Binding reactions were set up in wells of PicoPlates-96 (Perkin Elmer) by adding consecutively 50 μL of each competing compound or buffer, SPA beads, the radioligand and 5-HT3 receptor membranes. After 60-min incubation at room temperature on a Nutator mixer, plates were centrifuged for 15 min at 1,500 rpm, followed by incubation in the dark for 30 min. Radioactivity was counted in the TopCount microplate counter (Perkin Elmer) for 5 min. […] Specific binding was determined by subtracting nonspecific binding from total binding. All experiments were performed in duplicate using ten concentrations of a competing ligand, with ondansetron included as a control in every run. IC50 values were determined from specific binding data using XLfit4.1 curve fitting software from IDBS Ltd. Ki values were then calculated from the Cheng-Prusoff equation.
With CN1[C@@H]2CCC[C@H]1C[C@@H](NC(=O)c1cccc3oc(N4CCOCC4c4ccccc4)nc13)C2 (mixture of isomers) [Example 19, Endo-N-(9-Methyl-9-azabicyclo[3.3.1]non-3-yl)-2-(3-phenylmorpholino)benzoxazole-4-carboxamide Hydrochloride] the Ki was 17 nM. With CN1CCN(c2nc3c(C(=O)N[C@H]4C[C@H]5CCC[C@@H](C4)N5C)cccc3o2)C(c2ccccc2)C1 (mixture of isomers) [Example 23, Endo-N-(9-Methyl-9-azabicyclo[3.3.1]non-3-yl)-2-(4-methyl-2-phenylpiperazin-1-yl)benzoxazole-4-carboxamide Dihydrochloride] the Ki was 25.2 nM. For CN1CCN(c2nc3c(C(=O)NC4CN5CCC4CC5)cccc3o2)C(c2ccccc2)C1 (racemic) [Example 24, (S)—N-(quinuclidine-8-yl)-2-(4-methyl-2-phenylpiperazin-1-yl)benzoxazole-4-carboxamide Dihydrochloride], the Ki was 103 nM. C[C@@H]1CN(c2nc3c(C(=O)NC4CC5CCCC(C4)N5C)cccc3o2)[C@@H](C)CN1 (relative stereo) [Example 60, Endo N-(9-Methyl-9-azabicyclo[3.3.1]nonan-3-yl)-2-((2S*,5R*)-2,5-dimethylpiperazin-1-yl)benzoxazole-4-carboxamide Hydrochloride] was tested, and the Ki was 10.5 nM. C=CCN1C[C@H](C)N(c2nc3c(C(=O)NC4CC5CCCC(C4)N5C)cccc3o2)C[C@H]1C (relative stereo) [Example 147, Endo-N-(9-Methyl-9-azabicyclo[3.3.1]nonan-3-yl)-2-((2S*,5R*)-4-allyl-2,5-dimethylpiperazin-1-yl)benzoxazole-4-carboxamide Dihydrochloride] showed a Ki of 10.8 nM. CN1CCN(c2nc3c(C(=O)N[C@H]4C[C@H]5CCC[C@@H](C4)N5C)cccc3o2)CC1 [Example 1, Endo-N-(9-Methyl-9-azabicyclo[3.3.1]non-3-yl)-2-(4-methylpiperazin-1-yl)benzoxazole-4-carboxamide Dihydrochloride] showed a Ki of 85 nM. With CN1CCN(c2nc3c(C(=O)N[C@@H]4CN5CCC4CC5)cccc3o2)CC1 [Example 2, (S)—N-(quinuclidine-8-yl)-2-(4-methylpiperazin-1-yl)benzoxazole-4-carboxamide Dihydrochloride] the Ki was 382 nM. For CN1[C@@H]2CCC[C@H]1C[C@@H](NC(=O)c1cccc3oc(N4CCCCC4)nc13)C2 [Example 3, Endo-N-(9-Methyl-9-azabicyclo[3.3.1]non-3-yl)-2-(piperidin-1-yl)benzoxazole-4-carboxamide Hydrochloride], the Ki was 10.4 nM. For O=C(N[C@@H]1CN2CCC1CC2)c1cccc2oc(N3CCCCC3)nc12 [Example 4, (S)—N-(quinuclidine-8-yl)-2-(piperidin-1-yl)benzoxazole-4-carboxamide hydrochloride], the Ki was 34.2 nM. CN1[C@@H]2CCC[C@H]1C[C@@H](NC(=O)c1cccc3oc(Nc4ccccc4)nc13)C2 [Example 5, Endo-N-(9-Methyl-9-azabicyclo[3.3.1]non-3-yl)-2-(phenylamino)benzoxazole-4-carboxamide Hydrochloride] was tested, and the Ki was 6.25 nM. Compound O=C(N[C@@H]1CN2CCC1CC2)c1cccc2oc(Nc3ccccc3)nc12 [Example 6, (S)—N-(quinuclidine-8-yl)-2-(phenylamino) benzoxazole-4-carboxamide Hydrochloride] has a Ki of 8.1 nM. Work on CN(C)c1nc2c(C(=O)N[C@H]3C[C@H]4CCC[C@@H](C3)N4C)cccc2o1 [Example 7, Endo-N-(9-Methyl-9-azabicyclo[3.3.1]non-3-yl)-2-(dimethylamino)benzoxazole-4-carboxamide Hydrochloride] yielded a Ki of 6.1 nM. For CN1[C@@H]2CCC[C@H]1C[C@@H](NC(=O)c1cccc3oc(N4CCOCC4)nc13)C2 [Example 9, Endo-N-(9-Methyl-9-azabicyclo[3.3.1]non-3-yl)-2-morpholinobenzoxazole-4-carboxamide Hydrochloride], the Ki was 42 nM. Compound O=C(N[C@@H]1CN2CCC1CC2)c1cccc2oc(N3CCOCC3)nc12 [Example 10, (S)—N-(quinuclidine-8-yl)-2-morpholino-benzoxazole-4-carboxamide Hydrochloride] has a Ki of 164 nM. In the case of CN1CCCN(c2nc3c(C(=O)N[C@H]4C[C@H]5CCC[C@@H](C4)N5C)cccc3o2)CC1 [Example 11, Endo-N-(9-Methyl-9-azabicyclo[3.3.1]non-3-yl)-2-(4-methyl-1,4-diazepam-1-yl)benzoxazole-4-carboxamide Dihydrochloride], the Ki is reported as 89.6 nM. Compound CN1CCCN(c2nc3c(C(=O)NC4CN5CCC4CC5)cccc3o2)CC1 [Example 12, (S)—N-(quinuclidine-8-yl)-2-(4-methyl-1,4-diazepam-1-yl)benzoxazole-4-carboxamide Dihydrochloride] has a Ki of 317 nM. CN1[C@@H]2CCC[C@H]1C[C@@H](NC(=O)c1cccc3oc(NC4CNC4)nc13)C2 [Example 16, Endo-N-(9-Methyl-9-azabicyclo[3.3.1]non-3-yl)-2-(azetidin-3-ylamino)benzoxazole-4-carboxamide Dihydrochloride] gave a Ki of 179 nM. For C[C@@H]1CN(c2nc3c(C(=O)NC4CC5CCCC(C4)N5C)cccc3o2)C[C@H](C)O1 (stereo partly drawn) [Example 17, Endo-N-(9-Methyl-9-azabicyclo[3.3.1]non-3-yl)-2-[(2S,6R)-2,6-dimethylmorpholino]benzoxazole-4-carboxamide Hydrochloride], the Ki was 54.2 nM. For C[C@@H]1CN(c2nc3c(C(=O)N[C@@H]4CN5CCC4CC5)cccc3o2)C[C@H](C)O1 [Example 18, (S)—N-(quinuclidine-8-yl)-2-((2S,6R)-2,6-dimethylmorpholino)benzoxazole-4-carboxamide Hydrochloride], the Ki was 443 nM. With O=C(NC1CN2CCC1CC2)c1cccc2oc(N3CCOCC3c3ccccc3)nc12 [Example 20, (S)—N-(quinuclidine-8-yl)-2-(3-phenylmorpholino)benzoxazole-4-carboxamide Hydrochloride] the Ki was 34.4 nM. In the case of CN1[C@@H]2CCC[C@H]1C[C@@H](NC(=O)c1cccc3oc(N4CCNCC4)nc13)C2 [Example 21, Endo-N-(9-Methyl-9-azabicyclo[3.3.1]non-3-yl)-2-(piperazin-1-yl)benzoxazole-4-carboxamide Dihydrochloride], the Ki is reported as 74.6 nM. For O=C(N[C@@H]1CN2CCC1CC2)c1cccc2oc(N3CCNCC3)nc12 [Example 22, (S)—N-(quinuclidine-8-yl)-2-(piperazin-1-yl)benzoxazole-4-carboxamide Dihydrochloride], the Ki was 321 nM. With CC1CNCCN1c1nc2c(C(=O)N[C@H]3C[C@H]4CCC[C@@H](C3)N4C)cccc2o1 (stereo partly drawn) [Example 25, Endo-N-(9-Methyl-9-azabicyclo[3.3.1]non-3-yl)-2-(2-methylpiperazin-1-yl)benzoxazole-4-carboxamide Dihydrochloride] the Ki was 27.5 nM. CC1CNCCN1c1nc2c(C(=O)NC3CN4CCC3CC4)cccc2o1 [Example 26, (S)—N-(quinuclidine-8-yl)-2-(2-methylpiperazin-1-yl)benzoxazole-4-carboxamide Dihydrochloride] showed a Ki of 241 nM. CN1[C@@H]2CCC[C@H]1C[C@@H](NC(=O)c1cccc3oc(Nc4ccncc4)nc13)C2 [Example 27, Endo-N-(9-Methyl-9-azabicyclo[3.3.1]non-3-yl)-2-(pyridine-4-ylamino)benzoxazole-4-carboxamide Dihydrochloride] showed a Ki of 4.5 nM. O=C(N[C@@H]1CN2CCC1CC2)c1cccc2oc(Nc3ccncc3)nc12 [Example 28, (S)—N-(quinuclidine-8-yl)-2-(pyridin-4-ylamino)benzoxazole-4-carboxamide Dihydrochloride] gave a Ki of 5.3 nM. CN1[C@@H]2CCC[C@H]1C[C@@H](NC(=O)c1cccc3oc(N4CCNc5ccccc54)nc13)C2 [Example 29, Endo-N-(9-Methyl-9-azabicyclo[3.3.1]non-3-yl)-2-(3,4-dihydroquinoxaline-1(2H)-yl)benzoxazole-4-carboxamide Dihydrochloride] gave a Ki of 3.6 nM. With CN(C)c1nc2c(C(=O)N[C@H]3C[C@H]4COC[C@@H](C3)N4C)cccc2o1 [Example 30, Endo-N-(9-methyl-3-oxa-9-azabicyclo[3.3.1]non-7-yl)-2-(dimethylamino)benzoxazole-4-carboxamide Hydrochloride] the Ki was 79 nM. With CN(C)CCN(C)c1nc2c(C(=O)N[C@H]3C[C@H]4CCC[C@@H](C3)N4C)cccc2o1 [Example 31, Endo-N-(9-methyl-9-azabicyclo[3.3.1]nonan-3-yl)-2-((2-(dimethylamino)ethyl)(methyl)amino)benzoxazole-4-carboxamide hydrochloride] the Ki was 107 nM. For CN(C)CCNc1nc2c(C(=O)N[C@H]3C[C@H]4CCC[C@@H](C3)N4C)cccc2o1 [Example 32, Endo-N-(9-Methyl-9-azabicyclo[3.3.1]nonan-3-yl)-2-(2-(dimethylamino)ethylamino)benzoxazole-4-carboxamide Trihydrochloride], the Ki was 234 nM.
